From patent US10967076B2, “Use of non-labeled sugars and detection by MRI for assessing tissue perfusion and metabolism” (The Johns Hopkins University, priority 2010, dated 2021)

Columns and labels:
[1] = test system: MDA-MB-231 and MCF7 xenografts; assay: dynamic glucoCEST MRI during D-glucose infusion in a xenograft mouse at 11.7 T; format: in vivo; conditions: FIGS. 6A-6C
Source text: FIGS. 6A-6C show results for a D-glucose infusion experiment with dynamic monitoring of the MR exchange transfer signals for a mouse with two tumor xenografts (MDA-MB-231 and MCF7) at 11.7 T for which a D-glucose infusion protocol similar to the example in FIG. 4 was used.

[2] = test system: MDA-MB-231 and MCF-7 xenografts; assay: steady-state glucoCEST MRI before and after D-glucose infusion in a xenograft mouse at 9.4 T; format: in vivo, mice; conditions: offset 1.2 ppm, blood glucose about 20 mM, preliminary data, FIG. 4F
Source text: Tumors are generally characterized by rapid glucose metabolism, increased tissue blood volume, and increased permeability to extravascular extracellular space (EES). We applied glucose infusion in vivo on xenografts in mice for two human breast cancer lines: less aggressive (MCF-7) and highly aggressive and metastatic (MDA-MB-231). Our MRI protocol used normal D-glucose (non-radioactive, non-hyperpolarized and not labeled with magnetic isotopes) and monitored this using glucose-based chemical exchange saturation transfer (glucoCEST) MRI. Images were compared with perfusion as assessed by dynamic contrast-enhanced (DCE) MRI and glucose uptake as assessed by FDG-PET. In-vivo animal experiments employed female SCID mice four to six weeks old. Tumor cells were implanted orthotopically in the mammary fat pad in an aseptic surgical procedure according to Institutional Animal Care and Use Committee (IACUC) guidelines. […] Following tumor cell implants, animals were monitored until recovered from anesthesia and then checked after 6 and 12 h, then daily. […]

[3] = test system: MDA-MB-231 and MCF7 xenografts; assay: DCE-MRI with GdDTPA (post-Gd-DTPA difference images) of the xenograft mouse; format: in vivo
Source text: We applied glucose infusion in vivo on xenografts in mice for two human breast cancer lines: less aggressive (MCF-7) and highly aggressive and metastatic (MDA-MB-231). Our MRI protocol used normal D-glucose (non-radioactive, non-hyperpolarized and not labeled with magnetic isotopes) and monitored this using glucose-based chemical exchange saturation transfer (glucoCEST) MRI. Images were compared with perfusion as assessed by dynamic contrast-enhanced (DCE) MRI and glucose uptake as assessed by FDG-PET. In-vivo animal experiments employed female SCID mice four to six weeks old. Tumor cells were implanted orthotopically in the mammary fat pad in an aseptic surgical procedure according to Institutional Animal Care and Use Committee (IACUC) guidelines. For cell implantation in the mammary fat pad, mice were anesthetized with ketamine and acepromazine (6.25 mg/kg and 62.5 mg/kg) injected in a volume of 0.05 ml using a sterile insulin syringe (28.5 G needle), and a cell suspension containing 1×10^6 MDA-MB-231 cells in 0.05 ml of Hanks balanced salt solution was injected into the upper right thoracic mammary fat pad using a sterile insulin syringe (28.5 G needle). […] Following tumor cell implants, animals were monitored until recovered from anesthesia and then checked after 6 and 12 h, then daily. […]

[4] = test system: MDA-MB-231 and MCF-7 xenografts; assay: 18F-FDG-PET of the xenograft mouse; format: in vivo; conditions: 1 hr post-injection, FIG. 5B
Source text: We applied glucose infusion in vivo on xenografts in mice for two human breast cancer lines: less aggressive (MCF-7) and highly aggressive and metastatic (MDA-MB-231). Our MRI protocol used normal D-glucose (non-radioactive, non-hyperpolarized and not labeled with magnetic isotopes) and monitored this using glucose-based chemical exchange saturation transfer (glucoCEST) MRI. Images were compared with perfusion as assessed by dynamic contrast-enhanced (DCE) MRI and glucose uptake as assessed by FDG-PET. In-vivo animal experiments employed female SCID mice four to six weeks old. Tumor cells were implanted orthotopically in the mammary fat pad in an aseptic surgical procedure according to Institutional Animal Care and Use Committee (IACUC) guidelines. For cell implantation in the mammary fat pad, mice were anesthetized with ketamine and acepromazine (6.25 mg/kg and 62.5 mg/kg) injected in a volume of 0.05 ml using a sterile insulin syringe (28.5 G needle), and a cell suspension containing 1×10^6 MDA-MB-231 cells in 0.05 ml of Hanks balanced salt solution was injected into the upper right thoracic mammary fat pad using a sterile insulin syringe (28.5 G needle). […] Following tumor cell implants, animals were monitored until recovered from anesthesia and then checked after 6 and 12 h, then daily.

Question: With `O=C[C@H](O)[C@@H](O)[C@H](O)[C@H](O)CO` [D-glucose] as the compound, how does the “uptake (MTRasym signal changes as a function of time during infusion, rim and tumor center)” value [1] read?
Answer: uptake is higher in the more malignant MDA-MB-231 tumor

Question: What about the “glucose uptake (MTR asymmetry histograms before and after infusion, ROIs)” value [2] of the same compound?
Answer: a trend towards higher glucose uptake in the malignant MDA-MB-231 tumor (ROI 1) as well as in the necrotic area in the MCF7 tumor (ROI 2)

Question: How did the “visualization of the tumor mass” value ([3]; 0.2 mmole/kg GdDTPA, FIG. 5C) turn out when `O=C([O-])CN(CCN(CC(=O)[O-])CC(=O)O)CCN(CC(=O)[O-])CC(=O)O.[Gd+3]` [Gd-DTPA, Gadolinium-DiethyleneTriaminePentaacetic Acid] was run?
Answer: good visualization of the tumor mass relative to normal tissue

Question: What about the “highlighting of the necrotic area in the MCF7 tumor” value ([3]; Gd perfusion scan) of the same compound?
Answer: did not highlight the necrotic area in the MCF7 tumor

Question: Which “glucose uptake on PET” value [4] does the source give for Fluorodeoxyglucose [^18F-FDG] here?
Answer: the MDA-MB-231 tumor exhibits a higher glucose uptake than the MCF-7 tumor
